Measurements as given in patent EP4458916A1, “PHOTOCATALYTICALLY ACTIVE COATING COMPOSITION, METHOD FOR THE PRODUCTION THEREOF AND USE THEREOF” (priority 2023, dated 2024).
Like-named read-outs stand apart in the source and are kept apart here.

What was measured:
[1] = Immersion test: binding / wash-out of photocatalysts from SolGel coatings (1 h deionised water, UV-VIS signal loss); format: physicochemical; conditions: Rezeptur 5 coating on glass, dye 10 bis 40 mM; 1 h deionised water pH 6 ± 1, 22 ± 3 °C; relative UV-VIS signal loss at absorption maximum
Experimental: Für alle Untersuchungen wurden nach Beispiel 8 beschichtete Glasträger verwendet.
Um das Auswaschen der verschiedenen Farbstoffe in den Sol-Gel-Beschichtungen zu beurteilen wurde ein Immersionstest in vollentsalztem Wasser mit einem pH-Wert von (6 ± 1) und einer Wassertemperatur von (22 ± 3) °C für eine Stunde durchgeführt. Dazu wurden zunächst Schichten (Rezeptur 5, Beispiel 4, aufgefüllt mit 3,0 mL 2-Propanol; sh. Tabelle 3) mit erhöhter Farbstoffkonzentration (10 bis 40 mM; um die notwendige Auflösung bei der dünnen Schicht zu erreichen) auf Glas-Objektträgern erzeugt. Diese wurden nach dem Ablüften bei Raumtemperatur (30 min) eine Stunde bei 60°C nachgehärtet. Anschließend wurden die Schichten direkt im UV-VIS-Spektrometer vermessen. Die Ausgangswerte (Absorptionsmaximum des jeweiligen Farbstoffs) sollten dabei zwischen 0,05 A.U. und 1,50 A.U. liegen.
Nach einer Stunde in VE-Wasser wurden die Prüfkörper getrocknet und erneut gemessen. Aus den beiden Messungen wurde ein relativer Signalverlust in Prozent bei dem farbstoffspezifischen Absorptionsmaximum bestimmt.
Dieser Immersionstest diente dazu, das Auswaschverhalten verschiedener Farbstoffe aus Beschichtungssystemen zu beurteilen. Weiter soll er dabei helfen, verschiedene Farbstoffklassen oder verschiedene Farbstoffderivate einer Farbstoffklasse bezüglich dieser Charakteristik miteinander zu vergleichen. Die Ergebnisse sind in den folgenden Tabellen sortiert nach Stoffgruppen zusammengefasst: […]

[2] = system: S.aureus; format: cell-based; conditions: for Log10 Reduktion Probe / Log10 Reduktion Dunkelkontrolle: label = Katalysator of the coating, Rezeptur 2 nach Beispiel 2c on Melamin with S-25a 2 mM
[3] = system: Bakterien; test: Room light tests (Raumlichtversuche): antimicrobial efficacy at 10 µW/cm^2 for 24 h; format: cell-based; conditions: Farbstoff 5 mM, coating Rezeptur 3, Beispiel 2a (2,5 eq aqueous boric acid, 50 mM)
Experimental: Um die antimikrobielle Wirksamkeit in einem realen Szenario abzuschätzen, wurden sogenannte Raumlichtversuche durchgeführt. Dazu wurden die mit Bakterien versetzten Probenträger mit einer, für Innenräume repräsentativen Lichtintensität von 10 µW/cm^2 für einen Zeitraum von 24 h bestrahlt.
Herstellung der Beschichtung erfolgte gemäß Beispiel 2a (2,5 eq wässrige Borsäure, 50 mM), mit Rezeptur 3. Die Ergebnisse sind in der Tabelle 63 zusammengefasst. Tabelle 63: Antimikrobielle Wirksamkeit bei Raumlichtbedingungen

[4] = system: S. enterica; test: Bacteria test following modified ISO 22196, photodynamic effect of different photocatalysts in the SolGel coating on S. enterica; format: cell-based; conditions: Rezeptur 4 nach Beispiel 5 on Melamin, 4 h
Description: (§1) Die Bestimmung der antimikrobiellen Aktivität erfolgte nach einer modifizierten Version der ISO 22196:2011-08 ("Messung von antibakterieller Aktivität auf Kunststoff- und anderen porenfreien Oberflächen", Ausgabedatum: 2011-08).
(§2) Bei der Testdurchführung wurde ein dünner Flüssigkeitsfilm, in dem die Bakterien enthalten sind (1,25 x 10^4 /cm2), direkt auf die Probekörper (2,5 cm x 2,5 cm) aufgebracht. Direkt nach Beimpfung wurden von der Nullprobe die Bakterien von den Probekörperoberflächen mittels Ultraschall und Vortexen abgelöst und die Keimzahl (KBE (engl. CFU), Kolonie-bildende Einheit) bestimmt (t0-Wert). Ein weiterer Satz Nullproben und antimikrobiell ausgestatteter Proben wurden mit Bakterien im Flüssigkeitsfilm bei Raumtemperatur inkubiert. Nach 4 h wurden überlebende Bakterien von den Probekörperoberflächen mittels Ultraschall und Vortexen abgelöst und die Keimzahl bestimmt (t4-Wert).
(§3) Im Unterschied zu der in der ISO 22196:2011-08 beschriebenen Methode wurde das Inokulum nicht mit einer Folie abgedeckt und die Inkubationszeit von 24 auf 4 Stunden reduziert. Weiterhin wurden die Platten der Proben 3 und 4 mit Licht mit einer Intensität von 300 µW/cm2 belichtet.
(§4) Der Bakterientest wurde in Anlehnung an ISO 22196 nach oben beschriebener Methode durchgeführt. Die Ergebnisse sind Tabelle 57a bis 57b dargestellt. Tabelle 57a: Photodynamische Wirkung verschiedener Katalysatoren in der SolGel Beschichtung gegen S.aureus

[5] = system: I. monocytoqenes; test: Bacteria test following modified ISO 22196, photodynamic effect of different photocatalysts in the SolGel coating on I. monocytoqenes; format: cell-based; conditions: Rezeptur 4 nach Beispiel 5 on Melamin, 4 h
Description: as §1, §2, §3, §4

Molecule | Verlust durch Auswaschen [1] | also measured
2,7,12-Tris(pyridinio-p-tolyl)-17-(p-(methoxymethyl)phenyl) porphycen bromid [reference compound] | > 70% | –
CC(O)C(=O)[O][Al]([O]C(=O)C(C)O)[O]C(=O)C(C)O (centres unmarked) [AL] | – | Log10 Reduktion Probe ([2]; 4 h, 300 µW/cm2): 3,3±0,4; Log10 Reduktion Dunkelkontrolle ([2]; 4 h, dark): 0,2±0,7
O=P(N1CCCC1)(N1CCCC1)N1CCCC1 [PO] | – | Log10 Reduktion Probe ([2]; 4 h, 300 µW/cm2): 3,6±0,3; Log10 Reduktion Dunkelkontrolle ([2]; 4 h, dark): 0,0±0,1
NCCCOC1=CC(=O)c2cccc3cccc1c23 [S-08] | 13% | –
O=C1C(COc2ccc(O)cc2)=Cc2cccc3cccc1c23 [S-12] | 3% | –
O=C1C(COc2ccc(CO)cc2)=Cc2cccc3cccc1c23 [S-13] | – | log reduction at 5000 µM ([3]; 24 h, dark control, read-out: Log10 Reduktion Dunkelkontrolle): 0.9; log reduction at 5000 µM ([3]; illuminated 10 µW/cm^2 for 24 h, read-out: Log10 Reduktion 24 h): 1.9
O=C1C(C[n+]2ccccc2)=Cc2cccc3cccc1c23 [S-24a] | 9% | Photodynamische Wirkung gegen S.aureus (Log10 Reduktion), compared with the values of S-25a ([2]; Rezeptur 2, Beispiel 2a, filled up with IPA 1:2/1:5/1:8, dye content varied (Tabelle 56)): im Rahmen des Fehlers die gleichen Werte; S. enterica Log10 Reduktion Probe ([4]; 300 µW/cm2): 4,5±0,8; S. enterica Log10 Reduktion Dunkelkontrolle ([4]; dark): 0,0±0,2; I. monocytoqenes Log10 Reduktion Probe ([5]; 300 µW/cm2): 4,5±0,3; I. monocytoqenes Log10 Reduktion Dunkelkontrolle ([5]; dark): 0,0±0,3
CCCCCCCCCCOc1ccc(/C=C/C(=O)CC(=O)/C=C/c2ccc(OCCCCCCCCCC)cc2)cc1 [S-52a] | 13% | –
COCCC1=Cc2nc1ccc1[nH]c(cc1CCOC)c1nc(c(O)cc3[nH]c2cc3CCOC)C(CCOC)=C1 [S-58a, 9-Hydroxy-2,7,12,17-tetra-(beta-methoxyethyl)porphycen] | 4% | S. aureus Log10 Reduktion Probe ([2]; Rezeptur 4 nach Beispiel 5 on Melamin, 4 h, 300 µW/cm2): 1,4±0,1; S. aureus Log10 Reduktion Dunkelkontrolle ([2]; Rezeptur 4 nach Beispiel 5 on Melamin, 4 h, dark): 0,0±0,1
CC(=O)OCCC1=Cc2nc1ccc1[nH]c(cc1CCOC(C)=O)c1nc(c(O)cc3[nH]c2cc3CCOC(C)=O)C(CCOC(C)=O)=C1 [S-60a] | 8% | –
CC(=O)OCCC1=Cc2nc1ccc1[nH]c(cc1CCOC(C)=O)c1nc3c(cc4[nH]c2cc4CCOC(C)=O)OCCC3=C1 [S-60b] | 2% | –
COCCC1=Cc2nc1ccc1[nH]c(cc1CCOC)c1nc(c(OCCCO)cc3[nH]c2cc3CCOC)C(CCOC)=C1 [S-61a] | 6% | –
COCCC1=Cc2nc1ccc1[nH]c(cc1CCOC)c1nc(c(OCCCN)cc3[nH]c2cc3CCOC)C(CCOC)=C1 [S-62] | 3% | –
COCCC1=Cc2nc1ccc1[nH]c(cc1CCOC)c1nc(c(OCCCC(=O)O)cc3[nH]c2cc3CCOC)C(CCOC)=C1 [S-66a] | 3% | –
COCCC1=Cc2nc1ccc1[nH]c(cc1CCOC)c1nc(c(OCCC[Si](OC)(OC)OC)cc3[nH]c2cc3CCOC)C(CCOC)=C1 [S-68] | 9% | –
COCCC1=Cc2nc1c(O)cc1[nH]c(cc1CCOC)c1nc(c(NC(C)=O)cc3[nH]c2cc3CCOC)C(CCOC)=C1 [S-70] | 4% | –
COCCC1=Cc2nc1ccc1[nH]c(cc1CCOC)c1nc(c(OC(=O)CCC(N)C(=O)O)cc3[nH]c2cc3CCOC)C(CCOC)=C1 (centres unmarked) [S-74] | 11% | –
COCCC1=Cc2nc1ccc1[nH]c(cc1CCOC)c1nc(c(OCCCNC(=O)CCC(N)C(=O)O)cc3[nH]c2cc3CCOC)C(CCOC)=C1 (centres unmarked) [S-75] | 9% | –
OCCC1=Cc2nc1ccc1[nH]c(cc1CCO)c1nc(c(O)cc3[nH]c2cc3CCO)C(CCO)=C1 [Verbindungen S-59a] | 8% | –
